# Numbered stars: 1 amine (or outer) side, 2 acyl side, 3 side chain; on linkers, the order of the positions; unused ones are H or OH. Bridge positions count the residues as written; N and C are the ends. Peptide text beside a SMILES is read from it. C6F4(1,4-diyl) = Fc1c(F)c([*:2])c(F)c(F)c1[*:1]
# Molecular target: T1, SUMO-25-109MDM2 (Homo sapiens, UniProt Q00987)
# T1 construct: the ^25-109MDM2 gene was purchased from Addgene; made in house; host or cells: E. coli Rosetta (DE3) pLysS
# Assay: In-solution competition assay by biolayer interferometry (BLI)
# Type: binding
# Conditions: not given
row,Compound,Kd [µM]
1,CC(C)C[C@H](NC(=O)[C@H](C)NC(=O)[C@H](Cc1c[nH]c2ccccc12)NC(=O)[C@H](Cc1ccc(O)cc1)NC(=O)[C@H](CCC(=O)O)NC(=O)[C@H](C)NC(=O)[C@H](Cc1ccccc1)NC(=O)[C@H](CO)NC(=O)[C@@H](N)[C@@H](C)O)C(=O)N[C@@H](CC(C)C)C(=O)N[C@@H](CO)C(=O)N[C@@H](C)C(N)=O [Peptide 8] (H-TSFAEYWALLSA-NH2),0.0007 ± 0.0005
2,"CC(C)C[C@H](NC(=O)[C@@H]1CSc2c(F)c(F)c(c(F)c2F)SC[C@H](NC(=O)[C@H](C)NC(=O)[C@H](Cc2ccccc2)NC(=O)[C@H](CO)NC(=O)[C@@H](N)[C@@H](C)O)C(=O)N[C@@H](Cc2ccc(O)cc2)C(=O)N[C@@H](Cc2c[nH]c3ccccc23)C(=O)N[C@@H](CC(N)=O)C(=O)N1)C(=O)N[C@@H](CO)C(=O)N1CCC[C@H]1C(N)=O [Peptide 13] (H-TSFACYWNCLSP-NH2; linker 5-9 via C6F4(1,4-diyl))",0.036 ± 0.0085

# Same assay, conditions: Figs 3-5; peptide pre-incubated 30 min with ~50 or ~100 nM SUMO-25-109MDM2 in PBS, 0.05% Tween-20, 1 mg/mL BSA; sensor loaded with Biotin-PEG4-p53(15-29); 30 °C; response after 2 min; read-out: KD, competition assay using BLI
row,Compound,Kd [µM]
1,"CC(C)C[C@H](NC(=O)[C@H](CC(N)=O)NC(=O)[C@@H]1CSc2c(F)c(F)c(c(F)c2F)SC[C@H](NC(=O)[C@H](CO)NC(=O)[C@@H](N)[C@@H](C)O)C(=O)N[C@@H](C)C(=O)N[C@@H](CCC(=O)O)C(=O)N[C@@H](Cc2ccc(O)cc2)C(=O)N1)C(=O)N[C@@H](CC(C)C)C(=O)N[C@@H](CO)C(=O)N1CCC[C@H]1C(N)=O [Peptide 11] (H-TSCAEYCNLLSP-NH2; linker 3-7 via C6F4(1,4-diyl))",1.62 ± 0.263
2,"CC(C)C[C@@H]1NC(=O)[C@H](C)NC(=O)[C@@H](NC(=O)[C@H](Cc2c[nH]c3ccccc23)NC(=O)[C@H](Cc2ccc(O)cc2)NC(=O)[C@H](CCC(=O)O)NC(=O)[C@H](C)NC(=O)[C@H](Cc2ccccc2)NC(=O)[C@H](CO)NC(=O)[C@@H](N)[C@@H](C)O)CSc2c(F)c(F)c(c(F)c2F)SC[C@@H](C(N)=O)NC(=O)[C@H](CO)NC1=O [Peptide 40] (H-TSFAEYWCALSC-NH2; linker 8-12 via C6F4(1,4-diyl))",0.0007 ± 0.0005
3,CC(C)C[C@H](NC(=O)[C@H](CC(N)=O)NC(=O)[C@H](Cc1c[nH]c2ccccc12)NC(=O)[C@H](C)NC(=O)[C@H](CCC(=O)O)NC(=O)[C@H](C)NC(=O)[C@H](Cc1ccccc1)NC(=O)[C@H](CO)NC(=O)[C@@H](N)[C@@H](C)O)C(=O)N[C@@H](C)C(=O)N[C@@H](CO)C(=O)N1CCC[C@H]1C(N)=O [Peptide 6] (H-TSFAEAWNLASP-NH2),1.44 ± 0.39
4,"CC(C)C[C@H](NC(=O)[C@H](CC(N)=O)NC(=O)[C@H](Cc1c[nH]c2ccccc12)NC(=O)[C@@H]1CSc2c(F)c(F)c(c(F)c2F)SC[C@H](NC(=O)[C@@H](N)[C@@H](C)O)C(=O)N[C@@H](Cc2ccccc2)C(=O)N[C@@H](C)C(=O)N[C@@H](CCC(=O)O)C(=O)N1)C(=O)N[C@@H](CC(C)C)C(=O)N[C@@H](CO)C(=O)N1CCC[C@H]1C(N)=O [Peptide 10] (H-TCFAECWNLLSP-NH2; linker 2-6 via C6F4(1,4-diyl))",0.449 ± 0.057

# Same assay, conditions: supplementary binding validation; N=1; ~250 nM SUMO-25-109MDM2; read-out: KD, competition BLI assay
row,Compound,Kd [µM]
1,"CC(C)C[C@H](NC(=O)[C@H](CC(N)=O)NC(=O)[C@H](Cc1c[nH]c2ccccc12)NC(=O)[C@H](Cc1ccc(O)cc1)NC(=O)[C@@H]1CSc2c(F)c(F)c(c(F)c2F)SC[C@H](N)C(=O)N[C@@H](CO)C(=O)N[C@@H](Cc2ccccc2)C(=O)N[C@@H](C)C(=O)N1)C(=O)N[C@@H](CC(C)C)C(=O)N[C@@H](CO)C(=O)N1CCC[C@H]1C(N)=O [Peptide 9] (H-CSFACYWNLLSP-NH2; linker 1-5 via C6F4(1,4-diyl))",0.925 ± 0.07

# Same assay, conditions: supplementary binding validation; averaged over three measurements; ~30-100 nM SUMO-25-109MDM2 as given per peptide; read-out: Averaged KD, competition BLI assay
row,Compound,Kd [µM]
1,"CC(C)C[C@@H]1NC(=O)[C@H](CC(C)C)NC(=O)[C@@H](NC(=O)[C@H](Cc2c[nH]c3ccccc23)NC(=O)[C@H](Cc2ccc(O)cc2)NC(=O)[C@H](CCC(=O)O)NC(=O)[C@H](C)NC(=O)[C@H](Cc2ccccc2)NC(=O)[C@H](CO)NC(=O)[C@@H](N)[C@@H](C)O)CSc2c(F)c(F)c(c(F)c2F)SC[C@@H](C(N)=O)NC(=O)[C@H](CO)NC1=O [Peptide 16] (H-TSFAEYWCLLSC-NH2; linker 8-12 via C6F4(1,4-diyl))",0.003 ± 0.0013
2,"CC(C)C[C@H](NC(=O)[C@@H]1CSc2c(F)c(F)c(c(F)c2F)SC[C@H](NC(=O)[C@H](Cc2ccccc2)NC(=O)[C@H](CO)NC(=O)[C@@H](N)[C@@H](C)O)C(=O)N[C@@H](CCC(=O)O)C(=O)N[C@@H](Cc2ccc(O)cc2)C(=O)N[C@@H](Cc2c[nH]c3ccccc23)C(=O)N1)C(=O)N[C@@H](CC(C)C)C(=O)N[C@@H](CO)C(=O)N1CCC[C@H]1C(N)=O [Peptide 12] (H-TSFCEYWCLLSP-NH2; linker 4-8 via C6F4(1,4-diyl))",0.026 ± 0.005
3,"CC(C)C[C@H](NC(=O)[C@H](C)NC(=O)[C@@H]1CSc2c(F)c(F)c(c(F)c2F)SC[C@H](NC(=O)[C@H](Cc2ccccc2)NC(=O)[C@H](C)NC(=O)[C@H](C)N)C(=O)N[C@@H](CCC(=O)O)C(=O)N[C@@H](Cc2ccc(O)cc2)C(=O)N[C@@H](Cc2c[nH]c3ccccc23)C(=O)N1)C(=O)N[C@@H](CO)C(=O)N1CCC[C@H]1C(N)=O [Peptide 35] (H-AAFCEYWCALSP-NH2; linker 4-8 via C6F4(1,4-diyl))",0.316 ± 0.027
4,CC(C)C[C@H](NC(=O)[C@H](CC(N)=O)NC(=O)[C@H](Cc1c[nH]c2ccccc12)NC(=O)[C@H](C)NC(=O)[C@H](CCC(=O)O)NC(=O)[C@H](C)NC(=O)[C@H](Cc1ccccc1)NC(=O)[C@H](C)NC(=O)[C@@H](N)[C@@H](C)O)C(=O)N[C@@H](CC(C)C)C(=O)N[C@@H](CO)C(=O)N1CCC[C@H]1C(N)=O [Peptide 2] (H-TAFAEAWNLLSP-NH2),0.628 ± 0.089
5,"CC(C)C[C@H](NC(=O)[C@H](CC(N)=O)NC(=O)[C@@H]1CSc2c(F)c(F)c(c(F)c2F)SC[C@H](NC(=O)[C@H](CO)NC(=O)[C@@H](N)[C@@H](C)O)C(=O)N[C@@H](C)C(=O)N[C@@H](CCC(=O)O)C(=O)N[C@@H](Cc2ccc(O)cc2)C(=O)N1)C(=O)N[C@@H](CC(C)C)C(=O)N[C@@H](CO)C(=O)N1CCC[C@H]1C(N)=O [Peptide 11] (H-TSCAEYCNLLSP-NH2; linker 3-7 via C6F4(1,4-diyl))",1.59 ± 0.315
6,"CC(C)C[C@@H]1NC(=O)[C@H](C)NC(=O)[C@@H](NC(=O)[C@H](Cc2c[nH]c3ccccc23)NC(=O)[C@H](Cc2ccc(O)cc2)NC(=O)[C@H](CCC(=O)O)NC(=O)[C@H](C)NC(=O)[C@H](Cc2ccccc2)NC(=O)[C@H](CO)NC(=O)[C@@H](N)[C@@H](C)O)CSc2c(F)c(F)c(c(F)c2F)SC[C@@H](C(N)=O)NC(=O)[C@H](CO)NC1=O [Peptide 40] (H-TSFAEYWCALSC-NH2; linker 8-12 via C6F4(1,4-diyl))",0.0002 ± 0.0001
7,CC(C)C[C@H](NC(=O)[C@H](C)NC(=O)[C@H](CC(N)=O)NC(=O)[C@H](Cc1c[nH]c2ccccc12)NC(=O)[C@H](Cc1ccc(O)cc1)NC(=O)[C@H](C)NC(=O)[C@H](C)NC(=O)[C@H](Cc1ccccc1)NC(=O)[C@H](CO)NC(=O)[C@@H](N)[C@@H](C)O)C(=O)N[C@@H](CO)C(=O)N1CCC[C@H]1C(N)=O [Peptide 5] (H-TSFAAYWNALSP-NH2),0.03 ± 0.0038
8,CC(C)C[C@H](NC(=O)[C@H](CC(N)=O)NC(=O)[C@H](Cc1c[nH]c2ccccc12)NC(=O)[C@H](C)NC(=O)[C@H](CCC(=O)O)NC(=O)[C@H](C)NC(=O)[C@H](Cc1ccccc1)NC(=O)[C@H](CO)NC(=O)[C@@H](N)[C@@H](C)O)C(=O)N[C@@H](C)C(=O)N[C@@H](CO)C(=O)N1CCC[C@H]1C(N)=O [Peptide 6] (H-TSFAEAWNLASP-NH2),2.14 ± 0.39
9,CC(C)C[C@H](NC(=O)[C@H](CC(N)=O)NC(=O)[C@H](C)NC(=O)[C@H](Cc1ccc(O)cc1)NC(=O)[C@H](CCC(=O)O)NC(=O)[C@H](C)NC(=O)[C@H](C)NC(=O)[C@H](CO)NC(=O)[C@@H](N)[C@@H](C)O)C(=O)N[C@@H](CC(C)C)C(=O)N[C@@H](CO)C(=O)N1CCC[C@H]1C(N)=O [Peptide 3] (H-TSAAEYANLLSP-NH2),4.91 ± 0.713
10,"CC(C)C[C@H](NC(=O)[C@H](CC(N)=O)NC(=O)[C@H](Cc1c[nH]c2ccccc12)NC(=O)[C@@H]1CSc2c(F)c(F)c(c(F)c2F)SC[C@H](NC(=O)[C@@H](N)[C@@H](C)O)C(=O)N[C@@H](Cc2ccccc2)C(=O)N[C@@H](C)C(=O)N[C@@H](CCC(=O)O)C(=O)N1)C(=O)N[C@@H](CC(C)C)C(=O)N[C@@H](CO)C(=O)N1CCC[C@H]1C(N)=O [Peptide 10] (H-TCFAECWNLLSP-NH2; linker 2-6 via C6F4(1,4-diyl))",0.431 ± 0.046
11,CC(C)C[C@H](NC(=O)[C@H](CC(N)=O)NC(=O)[C@H](Cc1c[nH]c2ccccc12)NC(=O)[C@H](Cc1ccc(O)cc1)NC(=O)[C@H](C)NC(=O)[C@H](C)NC(=O)[C@H](Cc1ccccc1)NC(=O)[C@H](CO)NC(=O)[C@H](C)N)C(=O)N[C@@H](CC(C)C)C(=O)N[C@@H](CO)C(=O)N1CCC[C@H]1C(N)=O [Peptide 1] (H-ASFAAYWNLLSP-NH2),0.01 ± 0.0023
12,"CC(C)C[C@H](NC(=O)[C@@H]1CSc2c(F)c(F)c(c(F)c2F)SC[C@H](NC(=O)[C@H](C)NC(=O)[C@H](Cc2ccccc2)NC(=O)[C@H](CO)NC(=O)[C@@H](N)[C@@H](C)O)C(=O)N[C@@H](Cc2ccc(O)cc2)C(=O)N[C@@H](Cc2c[nH]c3ccccc23)C(=O)N[C@@H](C)C(=O)N1)C(=O)N[C@@H](CO)C(=O)N[C@@H](C)C(N)=O [Peptide 37] (H-TSFACYWACLSA-NH2; linker 5-9 via C6F4(1,4-diyl))",0.0016 ± 0.0013
13,"CC(C)C[C@@H]1NC(=O)[C@H](CC(N)=O)NC(=O)[C@@H](NC(=O)[C@H](Cc2ccc(O)cc2)NC(=O)[C@H](CCC(=O)O)NC(=O)[C@H](C)NC(=O)[C@H](Cc2ccccc2)NC(=O)[C@H](CO)NC(=O)[C@@H](N)[C@@H](C)O)CSc2c(F)c(F)c(c(F)c2F)SC[C@@H](C(=O)N2CCC[C@H]2C(N)=O)NC(=O)[C@H](CC(C)C)NC1=O [Peptide 15] (H-TSFAEYCNLLCP-NH2; linker 7-11 via C6F4(1,4-diyl))",1.15 ± 0.209
14,"CC(C)C[C@@H]1NC(=O)[C@H](CC(N)=O)NC(=O)[C@H](Cc2c[nH]c3ccccc23)NC(=O)[C@@H](NC(=O)[C@H](CCC(=O)O)NC(=O)[C@H](C)NC(=O)[C@H](Cc2ccccc2)NC(=O)[C@H](CO)NC(=O)[C@@H](N)[C@@H](C)O)CSc2c(F)c(F)c(c(F)c2F)SC[C@@H](C(=O)N[C@@H](CO)C(=O)N2CCC[C@H]2C(N)=O)NC1=O [Peptide 14] (H-TSFAECWNLCSP-NH2; linker 6-10 via C6F4(1,4-diyl))",2.02 ± 0.514
15,CC(C)C[C@H](NC(=O)[C@H](CC(C)C)NC(=O)[C@H](CC(N)=O)NC(=O)[C@H](C)NC(=O)[C@H](Cc1ccc(O)cc1)NC(=O)[C@H](CCC(=O)O)NC(=O)[C@H](C)NC(=O)[C@H](Cc1ccccc1)NC(=O)[C@H](CO)NC(=O)[C@@H](N)[C@@H](C)O)C(=O)N[C@@H](C)C(=O)N1CCC[C@H]1C(N)=O [Peptide 7] (H-TSFAEYANLLAP-NH2),1.22 ± 0.231

# Molecular target: MDM2
# Assay: not given
# Conditions: KD of single alanine mutant relative to PMI; ref 3 of supplement (Li et al., J. Mol. Biol. 2010); cited from earlier work
row,Compound,KD ratio
1,TSAAEYWNLLSP [Peptide F3A],11750
2,ASFAEYWNLLSP [Peptide T1A],1.9
3,TSFAEAWNLLSP [Peptide Y6A],191
4,TSFAEYWNLLSA [Peptide P12A],0.7
5,TSFAEYANLLSP [Peptide W7A],50720
6,TSFAEYWNLLAP [Peptide S11A],1.2
7,TAFAEYWNLLSP [Peptide S2A],8.4
8,TSFAAYWNLLSP [Peptide E5A],6.7
9,TSFAEYWNALSP [Peptide L9A],0.8
10,TSFAEYWNLASP [Peptide L10A],227

# — PMC9814900 (Communications Chemistry, 2022)
